Data reported in patent US20230416248A1, “COMPOUNDS AND USES THEREOF” (Foghorn Therapeutics Inc., priority 2020, published 2023).

Experiments:
[1] = target: T1, BRM (Homo sapiens, UniProt P51531); assay: ATPase catalytic activity of BRM, ADP-Glo in vitro biochemical assay; settings: for IC50: ADP-Glo ATPase assay, 30 nM BRM, 400 μM ATP; for Ratio*: ratio BRG1 IC50 / BRM IC50
T1 construct: made in house; host or cells: High Five insect cells
Procedure, shortened: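 ADP-Glo luminescence, after depletion of leftover ATP and conversion of ADP, reported the activity. The 1 h room-temperature reaction held 400 μM ATP, 20 nM salmon sperm DNA and 30 nM BRM in 20 mM Tris pH 8, 20 mM MgCl2, 50 mM NaCl, 0.1% Tween-20, 1 mM DTT.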

[2] = target: T2, BRG-1 (Homo sapiens, UniProt P51532); assay: ATPase catalytic activity of BRG-1, ADP-Glo in vitro biochemical assay; settings: ADP-Glo ATPase assay, 30 nM BRG-1, 400 μM ATP; read-out: BRG1 IC50
T2 construct: made in house; host or cells: High Five insect cells
Procedure, shortened: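 Luminescence read-out: ADP formed by BRG-1 ATPase is converted to ATP and detected by luciferase. Residual ATP is first removed with ADP-Glo Reagent for 40 min at RT; detection reagent is then incubated 60 min at RT before reading.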

T1 sequence (P51531 whole entry): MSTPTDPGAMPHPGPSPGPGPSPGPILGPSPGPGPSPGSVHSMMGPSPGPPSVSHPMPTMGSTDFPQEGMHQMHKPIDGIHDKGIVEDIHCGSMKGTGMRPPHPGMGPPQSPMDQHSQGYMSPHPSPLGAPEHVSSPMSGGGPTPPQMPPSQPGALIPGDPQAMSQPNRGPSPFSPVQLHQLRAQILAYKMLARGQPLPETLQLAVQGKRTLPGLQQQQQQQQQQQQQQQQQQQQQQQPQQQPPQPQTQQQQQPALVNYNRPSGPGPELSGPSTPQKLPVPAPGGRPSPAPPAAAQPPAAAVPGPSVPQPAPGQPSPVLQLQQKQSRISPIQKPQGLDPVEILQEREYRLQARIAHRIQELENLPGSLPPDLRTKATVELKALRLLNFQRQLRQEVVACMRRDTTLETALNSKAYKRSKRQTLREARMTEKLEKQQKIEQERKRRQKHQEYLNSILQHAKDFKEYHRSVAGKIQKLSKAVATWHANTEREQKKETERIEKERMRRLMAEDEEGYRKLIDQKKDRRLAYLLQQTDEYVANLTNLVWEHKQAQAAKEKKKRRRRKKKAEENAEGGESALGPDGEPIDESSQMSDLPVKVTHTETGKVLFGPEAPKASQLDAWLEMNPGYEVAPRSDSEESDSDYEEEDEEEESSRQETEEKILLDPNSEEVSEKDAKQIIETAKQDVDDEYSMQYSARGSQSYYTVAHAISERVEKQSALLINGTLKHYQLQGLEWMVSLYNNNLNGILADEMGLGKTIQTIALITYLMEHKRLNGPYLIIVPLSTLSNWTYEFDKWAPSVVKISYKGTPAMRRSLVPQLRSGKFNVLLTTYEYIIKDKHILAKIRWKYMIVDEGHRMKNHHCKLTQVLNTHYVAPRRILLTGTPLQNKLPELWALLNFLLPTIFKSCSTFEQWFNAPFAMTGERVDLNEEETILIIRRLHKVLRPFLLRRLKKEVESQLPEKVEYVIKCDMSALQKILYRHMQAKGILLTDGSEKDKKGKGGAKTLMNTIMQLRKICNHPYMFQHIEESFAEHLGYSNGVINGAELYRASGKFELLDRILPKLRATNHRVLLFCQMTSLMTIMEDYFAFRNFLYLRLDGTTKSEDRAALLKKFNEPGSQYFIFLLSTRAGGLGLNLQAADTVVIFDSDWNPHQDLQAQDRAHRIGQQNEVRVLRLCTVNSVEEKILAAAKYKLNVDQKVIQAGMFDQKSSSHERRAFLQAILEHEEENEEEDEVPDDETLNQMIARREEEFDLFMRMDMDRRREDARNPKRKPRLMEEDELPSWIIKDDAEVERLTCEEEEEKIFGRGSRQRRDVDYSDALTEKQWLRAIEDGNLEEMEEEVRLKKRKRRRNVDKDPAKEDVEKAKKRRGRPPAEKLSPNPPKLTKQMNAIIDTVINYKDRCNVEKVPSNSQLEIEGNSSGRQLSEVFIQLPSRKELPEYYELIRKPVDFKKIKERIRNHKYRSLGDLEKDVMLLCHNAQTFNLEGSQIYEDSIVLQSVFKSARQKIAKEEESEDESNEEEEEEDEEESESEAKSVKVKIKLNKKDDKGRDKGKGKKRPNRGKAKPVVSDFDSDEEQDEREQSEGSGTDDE
T2 sequence (P51532 whole entry): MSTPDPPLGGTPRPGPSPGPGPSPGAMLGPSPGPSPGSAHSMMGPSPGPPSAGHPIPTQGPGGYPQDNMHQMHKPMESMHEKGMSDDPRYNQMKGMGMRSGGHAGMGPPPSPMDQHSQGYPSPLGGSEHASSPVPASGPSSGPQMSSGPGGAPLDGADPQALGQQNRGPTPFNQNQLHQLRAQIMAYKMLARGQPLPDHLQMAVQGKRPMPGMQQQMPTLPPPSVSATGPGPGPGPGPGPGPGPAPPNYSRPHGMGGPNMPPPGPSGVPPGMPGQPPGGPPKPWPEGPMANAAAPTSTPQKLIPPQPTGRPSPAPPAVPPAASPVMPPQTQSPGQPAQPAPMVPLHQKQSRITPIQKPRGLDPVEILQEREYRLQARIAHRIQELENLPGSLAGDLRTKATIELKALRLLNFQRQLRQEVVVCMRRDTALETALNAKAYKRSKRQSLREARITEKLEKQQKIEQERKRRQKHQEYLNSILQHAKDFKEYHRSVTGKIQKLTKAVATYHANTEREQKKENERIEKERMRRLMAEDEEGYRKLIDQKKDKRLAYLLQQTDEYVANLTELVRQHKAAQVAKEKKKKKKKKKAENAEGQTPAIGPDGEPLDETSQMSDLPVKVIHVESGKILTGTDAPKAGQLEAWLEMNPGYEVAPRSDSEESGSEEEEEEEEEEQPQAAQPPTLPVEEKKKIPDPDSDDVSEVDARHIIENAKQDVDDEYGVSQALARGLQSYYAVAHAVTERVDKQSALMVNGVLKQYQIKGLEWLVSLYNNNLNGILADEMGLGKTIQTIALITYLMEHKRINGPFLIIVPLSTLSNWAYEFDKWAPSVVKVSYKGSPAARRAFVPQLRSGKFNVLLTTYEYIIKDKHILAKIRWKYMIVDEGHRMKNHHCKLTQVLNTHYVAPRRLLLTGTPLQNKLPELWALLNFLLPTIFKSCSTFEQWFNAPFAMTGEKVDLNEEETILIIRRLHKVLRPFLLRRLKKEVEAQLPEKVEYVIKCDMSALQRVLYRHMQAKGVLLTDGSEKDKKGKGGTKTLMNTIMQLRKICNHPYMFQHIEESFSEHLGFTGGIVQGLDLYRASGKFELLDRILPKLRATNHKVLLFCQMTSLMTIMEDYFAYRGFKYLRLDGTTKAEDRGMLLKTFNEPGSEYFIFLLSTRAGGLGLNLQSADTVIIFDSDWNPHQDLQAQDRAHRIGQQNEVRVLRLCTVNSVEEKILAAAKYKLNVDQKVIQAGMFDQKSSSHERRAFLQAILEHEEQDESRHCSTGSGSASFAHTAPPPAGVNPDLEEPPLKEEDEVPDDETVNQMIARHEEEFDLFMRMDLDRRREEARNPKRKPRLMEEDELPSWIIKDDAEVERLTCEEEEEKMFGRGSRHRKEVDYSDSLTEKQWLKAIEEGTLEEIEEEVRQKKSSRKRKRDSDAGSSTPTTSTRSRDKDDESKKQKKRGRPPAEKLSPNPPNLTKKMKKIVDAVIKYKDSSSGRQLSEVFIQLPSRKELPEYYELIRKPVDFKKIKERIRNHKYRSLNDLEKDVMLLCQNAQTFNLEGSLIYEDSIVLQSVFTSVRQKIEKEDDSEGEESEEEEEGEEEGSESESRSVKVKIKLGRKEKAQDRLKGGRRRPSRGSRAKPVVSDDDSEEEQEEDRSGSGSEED

SMILES	IC50 [1]	Ratio* [1]	IC50 [2]
C[C@@H]1C[C@@H]1c1ccc2c(n1)N(c1ccc3cnc(CNC(=O)c4ccc5c(c4)S(=O)(=O)CCOC5)cc3n1)CCO2 [Compound 832]	15.5 nM	58.26	906 nM
COCc1cc2c(nc1C(F)F)N(c1ccc3cnc(CNC(=O)c4ccc5c(c4)S(=O)(=O)CCOC5)cc3n1)CCC2 [Compound 835]	17.1 nM	9.15	156 nM
CN(C)c1nccc2c1CCCN2c1ccc2cnc(CNC(=O)c3ccc4c(c3)S(=O)(=O)CCOC4)cc2n1 [Compound 836]	105 nM	6.21	651 nM
CN(C)c1ccnc2c1CCCN2c1ccc2cnc(CNC(=O)c3ccc4c(c3)S(=O)(=O)CCOC4)cc2n1 [Compound 837]	33 nM	4.95	163 nM
O=C(NCc1cc2nc(N3CCOc4ccc(C(F)CF)nc43)ccc2cn1)c1ccc2c(c1)S(=O)(=O)CCOC2 (stereo not drawn) [Compound 838]	27.5 nM	38.76	1060 nM
Cc1nc(C)c2c(n1)N(c1ccc3cnc(CNC(=O)c4ccc5c(c4)S(=O)(=O)CCOC5)cc3n1)CCC2 [Compound 841]	290 nM	7.16	2080 nM
O=C(NCc1cc2nc(N3CC(F)Cc4cccnc43)ccc2cn1)c1ccc2c(c1)S(=O)(=O)CCOC2 (stereo not drawn) [Compound 842]	29.9 nM	10.98	329 nM
O=C(NCc1cc2nc(N3CCOc4nc(C5CC5)ccc43)ccc2cn1)c1ccc2c(c1)S(=O)(=O)CCOC2 [Compound 843]	56.2 nM	8.61	484 nM
O=C(NCc1cc2nc(N3CCOc4nc(C(F)F)ccc43)ccc2cn1)c1ccc2c(c1)S(=O)(=O)CCOC2 [Compound 846]	406 nM	11.26	4570 nM
Cc1ncnc2c1CCCN2c1ccc2cnc(CNC(=O)c3ccc4c(c3)S(=O)(=O)CCOC4)cc2n1 [Compound 848]	216 nM	10.10	2180 nM
COc1ccc(-c2ccc3cnc(CNC(=O)c4ccc5c(c4)S(=O)(=O)CCOC5)cc3n2)nc1 [Compound 850]	664 nM	6.87	4560 nM
O=C(NCc1cc2nc(-c3ccc(OC4CC4)cn3)ccc2cn1)c1ccc2c(c1)S(=O)(=O)CCOC2 [Compound 851]	708 nM	3.64	2570 nM
O=C(NCc1cc2nc(N3CCCc4cnc(OC5CC5)cc43)ccc2cn1)c1ccc2c(c1)S(=O)(=O)CCOC2 [Compound 852]	9.8 nM	17.95	176 nM
O=C(NCc1cc2nc(N3CCOc4cnc(C5CC5)c(F)c43)ccc2cn1)c1ccc2c(c1)S(=O)(=O)CCOC2 [Compound 853]	12.6 nM	16.24	205 nM
O=C(NCc1cc2nc(N3CCOc4ccc([C@@H](F)CF)nc43)ccc2cn1)c1ccc2c(c1)S(=O)(=O)CCOC2 [Compound 854]	105 nM	19.74	2070 nM
O=C(NCc1cc2nc(N3CC4CC4c4cccnc43)ccc2cn1)c1ccc2c(c1)S(=O)(=O)CCOC2 (stereo not drawn) [Compound 855]	395 nM	9.60	3800 nM

Results, then the compound that gave them:

IC50 [1]	Ratio* [1]	IC50 [2]	SMILES
45.1 nM	52.48	2370 nM	O=C(NCc1cc2nc(N3CCOc4ccc(C5CC(F)(F)C5)nc43)ccc2cn1)c1ccc2c(c1)S(=O)(=O)CCOC2 [Compound 828]
35.2 nM	33.09	1160 nM	C[C@H]1C[C@H]1c1ccc2c(n1)N(c1ccc3cnc(CNC(=O)c4ccc5c(c4)S(=O)(=O)CCOC5)cc3n1)CCO2 [Compound 831]
20.2 nM	14.40	291 nM	O=C(NCc1cc2nc(N3CCOc4cc(N5CCC5)ncc43)ccc2cn1)c1ccc2c(c1)S(=O)(=O)CCOC2 [Compound 834]
19 nM	19.99	380 nM	O=C(NCc1cc2nc(N3CCOc4cc(C5CC5)ccc43)cnc2cn1)c1ccc2c(c1)S(=O)(=O)CCOC2 [Compound 844]
21.2 nM	8.66	184 nM	CN(C)c1ccc2c(n1)OCCN2c1ccc2cnc(CNC(=O)c3ccc4c(c3)S(=O)(=O)CCOC4)cc2n1 [Compound 845]
19.4 nM	19.41	376 nM	O=C(NCc1cc2nc(N3CCOc4cc(C5(C(F)F)CC5)cnc43)ccc2cn1)c1ccc2c(c1)S(=O)(=O)CCOC2 [Compound 847]
11.9 nM	55.91	664 nM	O=C(NCc1cc2nc(N3CCOc4ccc([C@H](F)CF)nc43)ccc2cn1)c1ccc2c(c1)S(=O)(=O)CCOC2 [Compound 856]
